Columns and labels:
barnyardgrass [1] = test: Test A preemergence; type: in vivo, Echinochloa crus-galli
How it was run: (§1)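 Injury readout: eye-scored versus untreated controls, 0 to 100. Exposure period: ~10 days, greenhouse. Application: soil-directed spray over sown seed (pre) or spray on seedlings 2–10 cm tall with one or two leaves (post), compound carried in non-phytotoxic solvent including surfactant.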

crabgrass, large [2] = test: Test A preemergence; type: in vivo, Digitaria sanguinalis
How it was run: as §1

foxtail, giant [3] = test: Test A preemergence; type: in vivo, Setaria faberii
How it was run: as §1

morningglory [4] = test: Test A preemergence; type: in vivo, Ipomoea spp.
How it was run: as §1

pigweed [5] = test: Test A preemergence; type: in vivo, Amaranthus retroflexus
How it was run: as §1

velvetleaf [6] = test: Test A preemergence; type: in vivo, Abutilon theophrasti
How it was run: as §1

wheat [7] = test: Test A preemergence; type: in vivo, Triticum aestivum; settings: preemergence
How it was run: as §1

corn [8] = test: Test A preemergence; type: in vivo, Zea mays
How it was run: as §1

barnyardgrass [9] = test: Test A postemergence; type: in vivo, Echinochloa crus-galli
How it was run: as §1

crabgrass, large [10] = test: Test A postemergence; type: in vivo, Digitaria sanguinalis
How it was run: as §1

foxtail, giant [11] = test: Test A postemergence; type: in vivo, Setaria faberii
How it was run: as §1

morningglory [12] = test: Test A postemergence; type: in vivo, Ipomoea spp.
How it was run: as §1

pigweed [13] = test: Test A postemergence; type: in vivo, Amaranthus retroflexus
How it was run: as §1

velvetleaf [14] = test: Test A postemergence; type: in vivo, Abutilon theophrasti
How it was run: as §1

wheat [15] = test: Test A postemergence; type: in vivo, Triticum aestivum
How it was run: as §1

corn [16] = test: Test A postemergence; type: in vivo, Zea mays
How it was run: as §1

rice [17] = test: Test C flooded paddy test; type: in vivo, Oryza sativa; settings: Flood
How it was run: (§2)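 In-water treatment: compound dosed into 3 cm flood over soil, water level unchanged throughout. Controls run alongside; visual assessment at day 13–15.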

sedge, umbrella [18] = test: Test C flooded paddy test; type: in vivo, Cyperus difformis; settings: Flood
How it was run: as §2

ducksalad [19] = test: Test C flooded paddy test; type: in vivo, Heteranthera limosa; settings: Flood
How it was run: as §2

barnyardgrass [20] = test: Test C flooded paddy test; type: in vivo, Echinochloa crus-galli; settings: Flood
How it was run: as §2

rice [21] = test: Test B flood; type: in vivo, Oryza sativa; settings: 250 g ai/ha, visual rating on 0 to 100 scale (0 no effect, 100 complete control), 13 to 15 days
How it was run: (§3)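 Flooded-pot test: compound dosed into 3 cm of standing water above soil when plants had two leaves. Visual control ratings (0–100) versus untreated plants after 13–15 d.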

sedge, umbrella [22] = test: Test B flood; type: in vivo, Cyperus difformis; settings: 250 g ai/ha, visual rating on 0 to 100 scale (0 no effect, 100 complete control), 13 to 15 days
How it was run: as §3

ducksalad [23] = test: Test B flood; type: in vivo, Heteranthera limosa; settings: 250 g ai/ha, visual rating on 0 to 100 scale (0 no effect, 100 complete control), 13 to 15 days
How it was run: as §3

barnyardgrass [24] = test: Test B flood; type: in vivo, Echinochloa crus-galli; settings: 250 g ai/ha, visual rating on 0 to 100 scale (0 no effect, 100 complete control), 13 to 15 days
How it was run: as §3

[25] = Preemergence, 500 g ai/ha, 0 to 100 scale, 0 no effect, 100 complete control
[26] = preemergence, 125 g ai/ha, visual injury, 0 to 100 scale, approx. 10 days
[27] = 125 g ai/ha, visual injury, 0 to 100 scale, approx. 10 days
[28] = 500 g ai/ha, visual injury after approx. 10 days, 0 to 100 scale (0 no effect, 100 complete control)
[29] = Postemergence, 500 g ai/ha, visual rating after approx. 10 days, 0 to 100 scale (0 no effect, 100 complete control)
[30] = postemergence, 125 g ai/ha, about 10 days, visual rating on 0 to 100 scale (0 no effect, 100 complete control)
[31] = 31 g ai/ha, scale 0 to 100 (0 no effect, 100 complete control)
[32] = 62 g ai/ha, scale 0 to 100 (0 no effect, 100 complete control)
[33] = preemergence, 500 g ai/ha, visual injury after approx. 10 days, 0 to 100 scale (0 no effect, 100 complete control)

CCONC(=O)c1cc(C)n(Cc2cccc(OC(F)(F)F)c2)n1 [Compound 73]
Barnyardgrass plant response rating (barnyardgrass [1]; [25]): 60 | Barnyardgrass plant response rating (barnyardgrass [1]; [26]): 50 | Crabgrass, Large plant response rating (crabgrass, large [2]; [25]): 50 | Crabgrass, Large plant response rating (crabgrass, large [2]; [26]): 30 | Foxtail, Giant plant response rating (foxtail, giant [3]; [25]): 60 | Foxtail, Giant plant response rating (foxtail, giant [3]; [26]): 30 | Morningglory plant response rating (morningglory [4]; [25]): 30 | Morningglory plant response rating (morningglory [4]; [26]): 10 | Pigweed plant response rating (pigweed [5]; [25]): 100 | Pigweed plant response rating (pigweed [5]; [26]): 90 | Velvetleaf plant response rating (velvetleaf [6]; [25]): 60 | Velvetleaf plant response rating (velvetleaf [6]; [26]): 10 | Wheat plant response rating (wheat [7]; [27]): 0 | Wheat plant response rating (wheat [7]; [28]): 80 | Corn plant response rating (corn [8]; [25]): 50 | Corn plant response rating (corn [8]; [26]): 30 | Barnyardgrass plant response rating (barnyardgrass [9]; Postemergence, 125 g ai/ha, 0 to 100 scale, 0 no effect, 100 complete control): 40 | Barnyardgrass plant response rating (barnyardgrass [9]; [29]): 70 | Crabgrass, Large plant response rating (crabgrass, large [10]; [29]): 60 | Crabgrass, Large plant response rating (crabgrass, large [10]; [30]): 40 | Foxtail, Giant plant response rating (foxtail, giant [11]; [29]): 70 | Foxtail, Giant plant response rating (foxtail, giant [11]; [30]): 40 | Morningglory plant response rating (morningglory [12]; [29]): 40 | Morningglory plant response rating (morningglory [12]; [30]): 30 | Pigweed plant response rating (pigweed [13]; [29]): 90 | Pigweed plant response rating (pigweed [13]; [30]): 70 | Velvetleaf plant response rating (velvetleaf [14]; [29]): 80 | Velvetleaf plant response rating (velvetleaf [14]; [30]): 30 | Wheat plant response rating (wheat [15]; [29]): 40 | Wheat plant response rating (wheat [15]; [30]): 0 | Corn plant response rating (corn [16]; [29]): 80 | Corn plant response rating (corn [16]; [30]): 40 | Plant response rating, Rice (rice [17]; [31]): 0 | Plant response rating, Rice (rice [17]; [32]): 0 | Plant response rating, Rice (rice [17]; 125 g ai/ha, scale 0 to 100): 0 | Plant response rating, Rice (rice [17]; 250 g ai/ha, scale 0 to 100): 0 | Plant response rating, Sedge, Umbrella (sedge, umbrella [18]; [31]): 0 | Plant response rating, Sedge, Umbrella (sedge, umbrella [18]; [32]): 0 | Plant response rating, Sedge, Umbrella (sedge, umbrella [18]; 125 g ai/ha, scale 0 to 100): 0 | Plant response rating, Sedge, Umbrella (sedge, umbrella [18]; 250 g ai/ha, scale 0 to 100): 30 | Plant response rating, Ducksalad (ducksalad [19]; [31]): 0 | Plant response rating, Ducksalad (ducksalad [19]; [32]): 20 | Plant response rating, Ducksalad (ducksalad [19]; 125 g ai/ha, scale 0 to 100): 45 | Plant response rating, Ducksalad (ducksalad [19]; 250 g ai/ha, scale 0 to 100): 55 | Plant response rating, Barnyardgrass (barnyardgrass [20]; [31]): 0 | Plant response rating, Barnyardgrass (barnyardgrass [20]; [32]): 0 | Plant response rating, Barnyardgrass (barnyardgrass [20]; 125 g ai/ha, scale 0 to 100): 0 | Plant response rating, Barnyardgrass (barnyardgrass [20]; 250 g ai/ha, scale 0 to 100): 0

CCc1cc(C(=O)NCC(F)(F)F)nn1Cc1ccnc(OCC(F)(F)F)c1 [Compound 106]
Barnyardgrass plant response rating (barnyardgrass [1]; [26]): 50 | Barnyardgrass plant response rating (barnyardgrass [1]; [33]): 100 | Crabgrass, Large plant response rating (crabgrass, large [2]; [26]): 100 | Crabgrass, Large plant response rating (crabgrass, large [2]; [33]): 100 | Foxtail, Giant plant response rating (foxtail, giant [3]; [26]): 100 | Foxtail, Giant plant response rating (foxtail, giant [3]; [33]): 100 | Morningglory plant response rating (morningglory [4]; [26]): 30 | Morningglory plant response rating (morningglory [4]; [33]): 100 | Pigweed plant response rating (pigweed [5]; [26]): 100 | Pigweed plant response rating (pigweed [5]; [33]): 100 | Velvetleaf plant response rating (velvetleaf [6]; [26]): 10 | Velvetleaf plant response rating (velvetleaf [6]; [33]): 100 | Wheat plant response rating (wheat [7]; [27]): 10 | Wheat plant response rating (wheat [7]; [28]): 30 | Corn plant response rating (corn [8]; [26]): 20 | Corn plant response rating (corn [8]; [33]): 30 | Barnyardgrass plant response rating (barnyardgrass [9]; [29]): 80 | Barnyardgrass plant response rating (barnyardgrass [9]; [30]): 50 | Crabgrass, Large plant response rating (crabgrass, large [10]; [29]): 90 | Crabgrass, Large plant response rating (crabgrass, large [10]; [30]): 50 | Foxtail, Giant plant response rating (foxtail, giant [11]; [29]): 80 | Foxtail, Giant plant response rating (foxtail, giant [11]; [30]): 50 | Morningglory plant response rating (morningglory [12]; [29]): 100 | Morningglory plant response rating (morningglory [12]; [30]): 50 | Pigweed plant response rating (pigweed [13]; [29]): 100 | Pigweed plant response rating (pigweed [13]; [30]): 90 | Velvetleaf plant response rating (velvetleaf [14]; [29]): 70 | Velvetleaf plant response rating (velvetleaf [14]; [30]): 40 | Wheat plant response rating (wheat [15]; [29]): 40 | Wheat plant response rating (wheat [15]; [30]): 10 | Corn plant response rating (corn [16]; [29]): 60 | Corn plant response rating (corn [16]; [30]): 30 | Plant response rating, Rice (rice [21]): 20 | Plant response rating, Sedge, Umbrella (sedge, umbrella [22]): 90 | Plant response rating, Ducksalad (ducksalad [23]): 90 | Plant response rating, Barnyardgrass (barnyardgrass [24]): 30 | Plant response rating, Rice (rice [17]; [31]): 0 | Plant response rating, Rice (rice [17]; [32]): 0 | Plant response rating, Rice (rice [17]; 125 g ai/ha, scale 0 to 100): 0 | Plant response rating, Rice (rice [17]; 250 g ai/ha, scale 0 to 100): 0 | Plant response rating, Sedge, Umbrella (sedge, umbrella [18]; [31]): 70 | Plant response rating, Sedge, Umbrella (sedge, umbrella [18]; [32]): 85 | Plant response rating, Sedge, Umbrella (sedge, umbrella [18]; 125 g ai/ha, scale 0 to 100): 95 | Plant response rating, Sedge, Umbrella (sedge, umbrella [18]; 250 g ai/ha, scale 0 to 100): 98 | Plant response rating, Ducksalad (ducksalad [19]; [31]): 40 | Plant response rating, Ducksalad (ducksalad [19]; [32]): 50 | Plant response rating, Ducksalad (ducksalad [19]; 125 g ai/ha, scale 0 to 100): 70 | Plant response rating, Ducksalad (ducksalad [19]; 250 g ai/ha, scale 0 to 100): 70 | Plant response rating, Barnyardgrass (barnyardgrass [20]; [31]): 0 | Plant response rating, Barnyardgrass (barnyardgrass [20]; [32]): 0 | Plant response rating, Barnyardgrass (barnyardgrass [20]; 125 g ai/ha, scale 0 to 100): 20 | Plant response rating, Barnyardgrass (barnyardgrass [20]; 250 g ai/ha, scale 0 to 100): 30
